Measured values: ChEMBL document CHEMBL3785092, “Synthesis and biological evaluation of novel tetrahydroisoquinoline-C-aryl glucosides as SGLT2 inhibitors for the treatment of type 2 diabetes” (Eur J Med Chem, 2016)

The compounds below were run against T1, Sodium/glucose cotransporter 2 (Homo sapiens) (UniProt P31639) (assay: Inhibition of human SGLT2 expressed in CHO cells assessed as reduction in [14C]AMG uptake at 10 uM after 1 hr by liquid scintillation counting method relative to control).
T1 sequence (whole entry): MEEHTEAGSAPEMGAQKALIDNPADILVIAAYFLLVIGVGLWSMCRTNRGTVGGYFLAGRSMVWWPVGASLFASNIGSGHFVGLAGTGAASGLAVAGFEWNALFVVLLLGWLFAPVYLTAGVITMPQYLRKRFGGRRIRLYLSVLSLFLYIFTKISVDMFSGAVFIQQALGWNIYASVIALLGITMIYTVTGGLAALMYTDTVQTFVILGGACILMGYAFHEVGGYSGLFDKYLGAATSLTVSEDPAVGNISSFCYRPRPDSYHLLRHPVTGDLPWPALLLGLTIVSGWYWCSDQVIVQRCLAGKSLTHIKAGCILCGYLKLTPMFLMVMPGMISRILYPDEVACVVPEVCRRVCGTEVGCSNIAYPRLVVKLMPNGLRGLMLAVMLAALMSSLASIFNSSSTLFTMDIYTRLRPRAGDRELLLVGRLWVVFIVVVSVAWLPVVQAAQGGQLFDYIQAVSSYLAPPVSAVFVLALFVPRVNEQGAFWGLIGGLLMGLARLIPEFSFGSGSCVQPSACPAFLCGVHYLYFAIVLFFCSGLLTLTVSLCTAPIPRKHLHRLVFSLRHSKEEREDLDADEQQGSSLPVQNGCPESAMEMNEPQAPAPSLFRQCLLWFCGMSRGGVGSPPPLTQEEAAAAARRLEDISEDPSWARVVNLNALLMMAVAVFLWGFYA
Type: cell-based

| inhibition [%] | SMILES |
| --- | --- |
| 85.4 | CCOc1ccc(Cc2cc([C@@H]3O[C@H](CO)[C@@H](O)[C@H](O)[C@H]3O)ccc2Cl)cc1 |
| 32.1 | COc1ccc(C[C@@H]2NCCc3ccc([C@@H]4O[C@H](CO)[C@@H](O)[C@H](O)[C@H]4O)cc32)cc1 |
| 49.7 | OC[C@H]1O[C@@H](c2ccc3c(c2)[C@H](c2ccc4c(c2)OCO4)NCC3)[C@H](O)[C@@H](O)[C@@H]1O |
